Test [1] concerns the target T1, CXCR3 (Homo sapiens, UniProt P49682).
T1 construct: human CXCR3 in HEK293/CXCR3 membranes
T1 sequence (P49682 1-368): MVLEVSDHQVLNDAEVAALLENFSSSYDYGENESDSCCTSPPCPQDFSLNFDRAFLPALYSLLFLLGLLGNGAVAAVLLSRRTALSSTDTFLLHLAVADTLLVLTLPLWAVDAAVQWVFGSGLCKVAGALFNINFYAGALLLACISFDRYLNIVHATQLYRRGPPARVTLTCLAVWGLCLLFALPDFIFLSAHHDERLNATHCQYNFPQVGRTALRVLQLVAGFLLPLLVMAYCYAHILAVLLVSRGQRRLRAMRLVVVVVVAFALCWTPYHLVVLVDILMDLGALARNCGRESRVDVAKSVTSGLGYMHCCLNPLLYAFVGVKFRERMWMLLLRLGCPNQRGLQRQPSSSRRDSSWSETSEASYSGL
Kind of test: [3H]-VUF11211 radioligand displacement after LC nanofractionation, HEK293/CXCR3 membranes. It is filed as binding. Background: In a radioligand displacement assay an active substance lowers the binding of a labelled ligand.

Test [2] deals with T1, CXCR3. Kind of test: [3H]-VUF11211 radioligand displacement after LC nanofractionation, HEK293/CXCR3 membranes; […]-CXCL10 displacement also shown. The test is classed as binding.

pKd, pKi: −log10 of the molar value.

A word on the pKi: it is −log10 of the Ki, conventionally taken in molar units. The low end stands for a large Ki, the high end for a small Ki. As for `CCOc1ccc(-n2c([C@@H](C)N(Cc3cccnc3)C(=O)Cc3ccc(F)c(C(F)(F)F)c3)nc3ncccc3c2=O)cc1` [NBI-74330], the pKi in test [1] was 7.90.
In general, pKd refers to the negative decadic logarithm of the Kd, by convention in mol/L. A high value points to a low Kd. Regarding `CCNC(=O)c1cnc(N2CCN(C3CCN(Cc4ccc(Cl)cc4)CC3)[C@@H](CC)C2)c(Cl)c1` [VUF11211], in test [2], the negative-log Kd (pKd) is 9.30.

The record behind these values is publication PMC4551560, “Metabolic profiling of ligands for the chemokine receptor CXCR3 by liquid chromatography-mass spectrometry coupled to bioaffinity assessment” (Analytical and Bioanalytical Chemistry, 2015).
